The assay relates to NL-RLuc virus. Put plainly: Inhibition of HIV replication (NL-RLuc virus, luciferase readout in MT-2 cells). The class given is cell-based. Particulars: Human immunodeficiency virus 1, MT2, 120 h, MT-2 cells infected with NL-RLuc virus, 5 days of incubation, 10% FBS, at least 2 experiments. The text has this: Inhibition of HIV Replication:
A recombinant NL-RLuc proviral clone was constructed in which a section of the nef gene form NL4-3 was replaced with the Renilla Luciferase gene. This virus is fully infectious and can undergo multiple cycles of replication in cell culture. In addition, the luciferous reporter provides a simple and easy method for quantitating the extent of virus growth and consequently, the antiviral activity of test compounds. The plasmid pNLRLuc contains the proviral NL-Rluc DNA cloned into pUC18 at the PvuII site. The NL-RLuc virus was prepared by transfection of 293T cells with the plasmid pNLRLuc. Transfections were performed using the LipofectAMINE PLUS kit form Invitrogen (Carlsbad, Calif.) according to the manufacturer and the virus generated was titered in MT-2 cells. For susceptibility analyses, the titrated virus was used to infect MT-2 cells in the presence of compound, and after 5 days of incubation, cells were processed and quantitated for virus growth by the amount of expressed luciferase. Assay media was RPMI 1640 supplemented with 10% heat inactivated fetal bovine serum (FBS), 100 units/ml penicillin G/100 units/ml streptomycin, 10 mM HEPES buffer pH 7.55 and 2 mM L-glutamine. The results form at least 2 experiments were used to calculate the EC50 values. Luciferase was quantitated using the Dual Luciferase kit form Promega (Madison, Wis.). Susceptibility of viruses to compounds was determined by incubation in the presence of serial dilutions of the compound. The 50% effective concentration (EC50) was calculated by using the exponential form of the median effect equation where (Fa)=1/[1+(ED50/drug conc.)^m](Johnson V A, Byington R T. Infectivity Assay. In Techniques in HIV Research. ed. Aldovini A, Walker B D. 71-76. New York: Stockton Press. 1990).
In general, EC50 refers to the concentration needed to bring the measured effect to its halfway point. On to `Cc1n[nH]cc1-c1nc(C)c([C@H](OC(C)(C)C)C(=O)O)c(N2CCC(C)(C)CC2)c1-c1ccc(OCCc2ccc(F)cc2)cc1` [Example 38, (S)-2-(tert-Butoxy)-2-(4-(4,4-dimethylpiperidin-1-yl)-5-(4-(4-fluorophenethoxy)phenyl)-2-methyl-6-(3-methyl-1H-pyrazol-4-yl)pyridin-3-yl)acetic acid], for which the EC50 was 8 nM.

In turn, `Cc1nc(-c2cncnc2)c(-c2ccc(OCCc3ccc(F)cc3)cc2)c(N2CCC(C)(C)CC2)c1[C@H](OC(C)(C)C)C(=O)O` [Example 39, (S)-2-(tert-Butoxy)-2-(4-(4,4-dimethylpiperidin-1-yl)-5-(4-(4-fluorophenethoxy)phenyl)-2-methyl-6-(pyrimidin-5-yl)pyridin-3-yl)acetic acid] gave an EC50 of 3 nM.

With `Cc1nc(NCCCN(C)C)c(-c2ccc(OCCc3ccc(F)cc3)cc2)c(N2CCC(C)(C)CC2)c1[C@H](OC(C)(C)C)C(=O)O` [Example 40, (S)-2-(tert-Butoxy)-2-(6-((3-(dimethylamino)propyl)amino)-4-(4,4-dimethylpiperidin-1-yl)-5-(4-(4-fluorophenethoxy)phenyl)-2-methylpyridin-3-yl)acetic acid], it took 2 nM to reach a half-maximal effect (EC50).

In the case of `Cc1nc(-c2cccnc2)c(-c2ccc(OCCc3ccc(F)cc3)cc2)c(N2CCC(C)(C)CC2)c1[C@H](OC(C)(C)C)C(=O)O` [Example 41, (S)-2-(tert-Butoxy)-2-(4-(4,4-dimethylpiperidin-1-yl)-3-(4-(4-fluorophenethoxy)phenyl)-6-methyl-[2, 3′-bipyridin]-5-yl)acetic acid], the EC50 is 4 nM.

For `Cc1nc(NCC2CCN(C)CC2)c(-c2ccc(OCCc3ccc(F)cc3)cc2)c(N2CCC(C)(C)CC2)c1[C@H](OC(C)(C)C)C(=O)O` [Example 42, (S)-2-(tert-Butoxy)-2-(4-(4,4-dimethylpiperidin-1-yl)-5-(4-(4-fluorophenethoxy)phenyl)-2-methyl-6-(((1-methylpiperidin-4-yl)methyl)amino)pyridin-3-yl)acetic acid], the EC50 stood at 3 nM.

Take `Cc1nc(NCCN2CCN(C)CC2)c(-c2ccc(OCCc3ccc(F)cc3)cc2)c(N2CCC(C)(C)CC2)c1[C@H](OC(C)(C)C)C(=O)O` [Example 43, (S)-2-(tert-Butoxy)-2-(4-(4,4-dimethylpiperidin-1-yl)-5-(4-(4-fluorophenethoxy)phenyl)-2-methyl-6-((2-(4-methylpiperazin-1-yl)ethyl)amino)pyridin-3-yl)acetic acid]: the EC50 was found to be 0.6 nM.

`Cc1nc(NCC2CCOCC2)c(-c2ccc(OCCc3ccc(F)cc3)cc2)c(N2CCC(C)(C)CC2)c1[C@H](OC(C)(C)C)C(=O)O` [Example 44, (S)-2-(tert-Butoxy)-2-(4-(4,4-dimethylpiperidin-1-yl)-5-(4-(4-fluorophenethoxy)phenyl)-2-methyl-6-(((tetrahydro-2H-pyran-4-yl)methyl)amino)pyridin-3-yl)acetic acid] gave an EC50 of 3 nM.

Consider `Cc1nc(-n2ccnc2)c(-c2ccc(OCCc3ccc(F)cc3)cc2)c(N2CCC(C)(C)CC2)c1[C@H](OC(C)(C)C)C(=O)O` [Example 45, (S)-2-(tert-Butoxy)-2-(4-(4,4-dimethylpiperidin-1-yl)-5-(4-(4-fluorophenethoxy)phenyl)-6-(1H-imidazol-1-yl)-2-methylpyridin-3-yl)acetic acid], for which the midpoint of the response, the EC50, lay at 4 nM.

Molecule `Cc1nc(-c2ccn(C)n2)c(-c2ccc(OCCc3ccc(F)cc3)cc2)c(N2CCC(C)(C)CC2)c1[C@H](OC(C)(C)C)C(=O)O` [Example 46, (S)-2-(tert-Butoxy)-2-(4-(4,4-dimethylpiperidin-1-yl)-5-(4-(4-fluorophenethoxy)phenyl)-2-methyl-6-(1-methyl-1H-pyrazol-3-yl)pyridin-3-yl)acetic acid] yielded an EC50 of 4 nM.

In turn, `Cc1nc(-c2cnn(C3CC3)c2)c(-c2ccc(OCCc3ccc(F)cc3)cc2)c(N2CCC(C)(C)CC2)c1[C@H](OC(C)(C)C)C(=O)O` [Example 47, (S)-2-(tert-Butoxy)-2-(6-(1-cyclopropyl-H-pyrazol-4-yl)-4-(4,4-dimethylpiperidin-1-yl)-5-(4-(4-fluorophenethoxy)phenyl)-2-methylpyridin-3-yl)acetic acid] had an EC50 of 4 nM.

For the molecule `Cc1nc(-c2ccn(C)c2)c(-c2ccc(OCCc3ccc(F)cc3)cc2)c(N2CCC(C)(C)CC2)c1[C@H](OC(C)(C)C)C(=O)O` [Example 48, (S)-2-(tert-Butoxy)-2-(4-(4,4-dimethylpiperidin-1-yl)-5-(4-(4-fluorophenethoxy)phenyl)-2-methyl-6-(1-methyl-1H-pyrrol-3-yl)pyridin-3-yl)acetic acid], it took 3 nM to reach a half-maximal effect (EC50).

`Cc1nc(-c2cnn(C)c2C)c(-c2ccc(OCCc3ccc(F)cc3)cc2)c(N2CCC(C)(C)CC2)c1[C@H](OC(C)(C)C)C(=O)O` [Example 49, (S)-2-(tert-Butoxy)-2-(6-(1,5-dimethyl-1H-pyrazol-4-yl)-4-(4,4-dimethylpiperidin-1-yl)-5-(4-(4-fluorophenethoxy)phenyl)-2-methylpyridin-3-yl)acetic acid]: a half-maximal effect (EC50) was put at 0.7 nM.

The molecule `Cc1nc(-c2ccnn2C)c(-c2ccc(OCCc3ccc(F)cc3)cc2)c(N2CCC(C)(C)CC2)c1[C@H](OC(C)(C)C)C(=O)O` [Example 50, (S)-2-(tert-Butoxy)-2-(4-(4,4-dimethylpiperidin-1-yl)-5-(4-(4-fluorophenethoxy)phenyl)-2-methyl-6-(1-methyl-1H-pyrazol-5-yl)pyridin-3-yl)acetic acid] had an EC50 of 2 nM.

With `Cc1nc(-c2cn[nH]c2)c(-c2ccc(OCCc3ccc(F)cc3)cc2)c(N2CCC(C)(C)CC2)c1[C@H](OC(C)(C)C)C(=O)O` [Example 51, (S)-2-(tert-Butoxy)-2-(4-(4,4-dimethylpiperidin-1-yl)-5-(4-(4-fluorophenethoxy)phenyl)-2-methyl-6-(1H-pyrazol-4-yl)pyridin-3-yl)acetic acid], the EC50 is 5 nM.

Take `Cc1nc(NCCCN2CCN(C)CC2)c(-c2ccc(OCCc3ccc(F)cc3)cc2)c(N2CCC(C)(C)CC2)c1[C@H](OC(C)(C)C)C(=O)O` [Example 52, (S)-2-(tert-Butoxy)-2-(4-(4,4-dimethylpiperidin-1-yl)-5-(4-(4-fluorophenethoxy)phenyl)-2-methyl-6-((3-(4-methylpiperazin-1-yl)propyl)amino)pyridin-3-yl)acetic acid]: the EC50 was 1 nM.

Take `Cc1cn(-c2nc(C)c([C@H](OC(C)(C)C)C(=O)O)c(N3CCC(C)(C)CC3)c2-c2ccc(OCCc3ccc(F)cc3)cc2)c(C)n1` [Example 53, (S)-2-(tert-Butoxy)-2-(6-(2,4-dimethyl-1H-imidazol-1-yl)-4-(4,4-dimethylpiperidin-1-yl)-5-(4-(4-fluorophenethoxy)phenyl)-2-methylpyridin-3-yl)acetic acid]: the EC50 turned out to be 3 nM.

`Cc1nc(-n2ccnc2C)c(-c2ccc(OCCc3ccc(F)cc3)cc2)c(N2CCC(C)(C)CC2)c1[C@H](OC(C)(C)C)C(=O)O` [Example 54, (S)-2-(tert-Butoxy)-2-(4-(4,4-dimethylpiperidin-1-yl)-5-(4-(4-fluorophenethoxy)phenyl)-2-methyl-6-(2-methyl-1H-imidazol-1-yl)pyridin-3-yl)acetic acid] returned an EC50 of 2 nM.

For the origin of these results see patent publication US20200055839A1 (priority 2017, published 2020).
